Data on one compound can be found in PMC12369479 (Journal of Experimental Botany, 2025).

Assay [1] concerns both moss enzymes. The assay is described as follows: ADK activity, coupled reaction (summary for moss enzymes). It is filed as biochemical, Physcomitrella patens. The settings on record: saturating 100 µM concentration. The procedure: (§1) Substrate analogs were purchased from Sigma-Aldrich (www.sigmaaldrich.com). The ADK activity was measured spectrophotometrically on an Agilent 8453 UV-Vis spectrophotometer (www.agilent.com) at 30 °C using a coupled reaction with pyruvate kinase (PK) and lactate dehydrogenase (LDH) (www.sigmaaldrich.com) ([Blondin et al., 1994]). In this assay, PK converts ADP produced by ADK and phosphoenolpyruvate (PEP) to pyruvate. Subsequently, LDH then converts pyruvate to lactate using the coenzyme NADH, with the conversion monitored at 340 nm. The reaction was conducted in 50 mM Tris–HCl buffer at pH 7.5, containing 50 mM KCl, 6 mM MgCl2, 300 µM PEP, 200 µM NADH, 10 mM ATP, 2 U of PK, and 2.5 U of LDH, using various nucleoside substrates. Kinetic constants were determined using GraphPad Prism 8.0 software (www.graphpad.com). Each measurement was performed six times using repetitive purified enzymes. The activities of all five ADKs were also measured by HPLC ([Moffatt et al., 1991]). The reaction mixture comprised 50 mM Tris–HCl pH 7.5, 5 mM MgCl2, 0.5 mM DTT, 30 mM NaF, 5 mM ATP, 40 µM substrate, and 2–150 ng of purified ADK, depending on the isoform. The reaction was incubated at 30 °C for up to 1 h. […]

Assay [2] relates to all five ADKs. The assay is described as follows: ADK kinetics, coupled reaction (summary for all isoforms). It counts as biochemical, Zea mays, Physcomitrella patens. The conditions noted are these: range over all five ADKs. Here is the method:
as §1

For assay [3], the target named is T1, ZmADK3 D19A variant (Zea mays, UniProt A0A1D6E5Z5, D19A). The assay is described as follows: ADK activity, coupled reaction with PK and LDH. It counts as biochemical. Here is the method: (§2) All ZmADK3 mutants were cloned by 30 cycle PCRs using tail-to-tail oriented phosphorylated primers, with the mutation being located at the 5′ end of one of the primers. The following mutants were cloned using the primers given in Supplementary Table S1: D19A, R132A, N222A, E225A, N295A, and D299A. The products were treated with DpnI restriction enzyme, gel purified, and ligated using T4 DNA ligase (www.thermofisher.com). Clones were transformed into T7 express I^qE. coli competent cells.
T1 sequence (A0A1D6E5Z5 entry or part of it D19A): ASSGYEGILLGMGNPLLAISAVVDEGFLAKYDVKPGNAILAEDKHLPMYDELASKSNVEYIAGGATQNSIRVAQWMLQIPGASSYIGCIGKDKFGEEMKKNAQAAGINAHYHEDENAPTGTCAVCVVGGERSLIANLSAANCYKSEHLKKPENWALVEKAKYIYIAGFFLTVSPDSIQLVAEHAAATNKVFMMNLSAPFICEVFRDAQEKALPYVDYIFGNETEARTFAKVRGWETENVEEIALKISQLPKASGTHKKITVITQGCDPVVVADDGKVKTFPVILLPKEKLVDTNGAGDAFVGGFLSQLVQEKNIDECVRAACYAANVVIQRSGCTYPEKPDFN
(§3) Substrate analogs were purchased from Sigma-Aldrich (www.sigmaaldrich.com). The ADK activity was measured spectrophotometrically on an Agilent 8453 UV-Vis spectrophotometer (www.agilent.com) at 30 °C using a coupled reaction with pyruvate kinase (PK) and lactate dehydrogenase (LDH) (www.sigmaaldrich.com) ([Blondin et al., 1994]). In this assay, PK converts ADP produced by ADK and phosphoenolpyruvate (PEP) to pyruvate. Subsequently, LDH then converts pyruvate to lactate using the coenzyme NADH, with the conversion monitored at 340 nm. The reaction was conducted in 50 mM Tris–HCl buffer at pH 7.5, containing 50 mM KCl, 6 mM MgCl2, 300 µM PEP, 200 µM NADH, 10 mM ATP, 2 U of PK, and 2.5 U of LDH, using various nucleoside substrates. Kinetic constants were determined using GraphPad Prism 8.0 software (www.graphpad.com). Each measurement was performed six times using repetitive purified enzymes. The activities of all five ADKs were also measured by HPLC ([Moffatt et al., 1991]). The reaction mixture comprised 50 mM Tris–HCl pH 7.5, 5 mM MgCl2, 0.5 mM DTT, 30 mM NaF, 5 mM ATP, 40 µM substrate, and 2–150 ng of purified ADK, depending on the isoform. The reaction was incubated at 30 °C for up to 1 h. […] Similarly, the conversion of cytokinin ribosides to monophosphates was followed on a LiChrosphere 60 RP-Select B (5 µm) LiChroCART column 125-4 column equilibrated with 10 mM triethylamine at pH 5.4 plus 10% methanol, and stepwise eluted with 100% methanol.

Assay [4] deals with T2, ZmADK3 E225A variant (Zea mays, UniProt A0A1D6E5Z5, E225A). The assay is described as follows: ADK activity, coupled reaction with PK and LDH. The settings on record: 100 µM Ado, 10 mM ATP, 30 °C. It is filed as biochemical. Here is the method:
as §2, §3

Assay [5] deals with T3, ZmADK3 N222A variant (Zea mays, UniProt A0A1D6E5Z5, N222A). The assay is described as follows: ADK activity, coupled reaction with PK and LDH. It counts as biochemical. The conditions noted are these: 100 µM Ado, 10 mM ATP, 30 °C. The procedure: as §2, §3
T3 sequence (A0A1D6E5Z5 entry or part of it N222A): as the sequence (A0A1D6E5Z5 entry or part of it D19A) above, with A18D, N221A counted along it
The target in assay [6] is T4, ZmADK3 R132A variant (Zea mays, UniProt A0A1D6E5Z5, R132A). The experiment in a line: ADK activity, coupled reaction with PK and LDH. It counts as biochemical. The settings on record: 100 µM Ado, 10 mM ATP, 30 °C. The procedure: as §2, §3
T4 sequence (A0A1D6E5Z5 entry or part of it R132A): as the sequence (A0A1D6E5Z5 entry or part of it D19A) above, with A18D, R131A counted along it
The target of assay [7] is T5, ZmADK3 D299A variant (Zea mays, UniProt A0A1D6E5Z5, D299A). The experiment in a line: ADK activity, coupled reaction with PK and LDH. The settings on record: 100 µM Ado, 10 mM ATP, 30 °C. It is filed as biochemical. Here is the method:
as §2, §3

For assay [8], the target named is T6, ZmADK3 N295A variant (Zea mays, UniProt A0A1D6E5Z5, N295A). The assay is described as follows: ADK activity, coupled reaction with PK and LDH. It is filed as biochemical. The settings on record: 100 µM Ado, 10 mM ATP, 30 °C. The procedure:
as §2, §3

The target of assay [9] is ZmADK1 (Zea mays, UniProt K7UH13). The experiment in a line: ADK activity, coupled reaction with PK and LDH. The settings on record: 100 µM substrate, 10 mM ATP, pH 7.5, 30 °C. Here is the method:
as §3

Assay [10] deals with PpADK2 (Physcomitrium patens, UniProt A9RF27). The assay is described as follows: ADK activity, coupled reaction with PK and LDH. The conditions noted are these: 100 µM substrate, 10 mM ATP, pH 7.5, 30 °C. Here is the method: as §3
Chain of PpADK2 (A9RF27 entry or part of it): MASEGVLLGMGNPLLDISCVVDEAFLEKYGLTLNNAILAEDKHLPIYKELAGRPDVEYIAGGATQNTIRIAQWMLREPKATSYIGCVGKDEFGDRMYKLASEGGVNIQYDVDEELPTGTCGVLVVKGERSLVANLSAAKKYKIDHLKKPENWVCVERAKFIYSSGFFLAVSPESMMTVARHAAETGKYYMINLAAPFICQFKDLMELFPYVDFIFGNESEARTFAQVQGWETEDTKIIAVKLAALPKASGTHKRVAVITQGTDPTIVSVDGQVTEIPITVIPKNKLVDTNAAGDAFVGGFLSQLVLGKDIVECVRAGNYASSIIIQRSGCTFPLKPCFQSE
Assay [11] deals with ZmADK2 (Zea mays, UniProt B4FFH8, T4S). The assay is described as follows: Binding affinity by microscale thermophoresis (MST). The conditions noted are these: MST. Here is the method: (§4) The microscale thermophoresis (MST) method was used to determine the binding affinity of various ribosides for ZmADK2 and PpADK1. Proteins were fluorescently labeled with RED-tris-NTA dye (www.nanotemper-technologies.com) using a 1:1 dye/protein molar ratio. The labeled protein was adjusted to 100–300 nM in 50 mM HEPES buffer pH 7.5, 1 mM MgCl2, and 0.2% Tween. Measurements were performed in premium capillaries on a Monolith NT.115 instrument at 30 °C with 5 s/30 s/5 s laser off/on/off times, respectively, with continuous sample fluorescence recording. Thermal stability was measured by nano-differential scanning fluorimetry on a Prometheus NT.48 instrument (www.nanotemper-technologies.com) in various buffers covering a pH (7.0–9.5) and temperature range (25–95 °C), with a heating rate of 1 °C min^–1, and using NT melting control software. Protein unfolding was measured by detecting the temperature-induced change in tryptophan fluorescence intensity at emission wavelengths of 330±5 nm and 350±5 nm. The melting temperature (Tm) was deduced from the maximum of the first derivative of the fluorescence ratios F350/F330.
Chain of ZmADK2 (B4FFH8 1-342 T4S): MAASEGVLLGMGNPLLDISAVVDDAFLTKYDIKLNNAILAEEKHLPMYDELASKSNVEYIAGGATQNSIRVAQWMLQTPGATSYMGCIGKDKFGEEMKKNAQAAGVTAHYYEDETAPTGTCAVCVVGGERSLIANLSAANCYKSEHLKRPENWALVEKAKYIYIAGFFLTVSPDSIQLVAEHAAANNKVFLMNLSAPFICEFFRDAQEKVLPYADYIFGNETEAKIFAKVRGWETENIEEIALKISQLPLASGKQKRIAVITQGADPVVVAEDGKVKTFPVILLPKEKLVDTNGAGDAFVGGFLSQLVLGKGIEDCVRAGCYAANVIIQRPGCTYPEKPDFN
In general terms: In MST a laser heats a spot of the sample, and binding alters the fluorescence response.

The target in assay [12] is T1, ZmADK3 D19A variant. The experiment in a line: Binding affinity by MST. Here is the method:
as §2, §4

For assay [13], the target named is T2, ZmADK3 E225A variant. The experiment in a line: Binding affinity by MST. Here is the method: as §2, §4
Assay [14] deals with T3, ZmADK3 N222A variant. The experiment in a line: Binding affinity by MST. The procedure: as §2, §4
For assay [15], the target named is T4, ZmADK3 R132A variant. The assay is described as follows: Binding affinity by MST. The procedure:
as §2, §4

Assay [16] deals with T5, ZmADK3 D299A variant. The experiment in a line: Binding affinity by MST. Here is the method:
as §2, §4

Assay [17] concerns the target T6, ZmADK3 N295A variant. The assay is described as follows: Binding affinity by MST. Here is the method: as §2, §4
Assay [18] concerns all three maize ADKs. The experiment in a line: ADK activity, coupled reaction (summary for maize enzymes). It counts as biochemical, Zea mays. The conditions noted are these: saturating 100 µM concentration. The procedure:
as §1

For assay [19], the system named is rabbit ADK. The arrangement: method as in Miller et al., 1979a. The settings on record: ref Miller et al., 1979a; cited from earlier work.

T5 sequence (A0A1D6E5Z5 entry or part of it D299A): as the sequence (A0A1D6E5Z5 entry or part of it D19A) above, with A18D, D298A counted along it
T2 sequence (A0A1D6E5Z5 entry or part of it E225A): as the sequence (A0A1D6E5Z5 entry or part of it D19A) above, with A18D, E224A counted along it
T6 sequence (A0A1D6E5Z5 entry or part of it N295A): as the sequence (A0A1D6E5Z5 entry or part of it D19A) above, with A18D, N294A counted along it
Chain of ZmADK1 (K7UH13 entry or part of it): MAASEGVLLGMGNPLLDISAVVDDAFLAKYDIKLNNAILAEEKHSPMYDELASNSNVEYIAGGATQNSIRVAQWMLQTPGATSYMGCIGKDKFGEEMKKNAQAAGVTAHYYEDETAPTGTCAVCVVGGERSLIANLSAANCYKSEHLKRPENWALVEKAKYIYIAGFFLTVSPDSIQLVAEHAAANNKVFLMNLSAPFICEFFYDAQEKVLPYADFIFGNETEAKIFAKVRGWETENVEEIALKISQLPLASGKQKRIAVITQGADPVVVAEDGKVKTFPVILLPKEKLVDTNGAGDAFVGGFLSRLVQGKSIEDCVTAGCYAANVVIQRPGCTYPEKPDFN

Consider `Nc1ncnc2c1ncn2[C@@H]1O[C@H](CO)[C@@H](O)[C@H]1O` [Ado, adenosine], for which the activity in [1] is given as 4–5 nkat mg^–1; in assay [18], 30–40 nkat mg^–1. Besides, the Michaelis-Menten constant (Km) is 500 to 700 nM in assay [2] and 400 nM in assay [19]. The “reduction in specific activity” value in assay [3] (D19A variant of ZmADK3 vs WT, Ado substrate) was 10 fold. Also, the Specific activity in assay [3] (D19A, 100 µM Ado, 10 mM ATP, 30 °C) is 3.3±0.4 nkat mg^–1; in [4] it was 1.9±0.4 nkat mg^–1; in assay [5] it was 13.4±0.7 nkat mg^–1; in [6] it was 7.4±0.3 nkat mg^–1; in assay [7], 1.8±0.1 nkat mg^–1; in assay [8], 10.1±0.1 nkat mg^–1. For the same compound, the Specific activity in assay [9] came out at 30.5±0.4 nmol s^–1 mg^–1; in assay [10], 4.70±0.05 nmol s^–1 mg^–1. Moreover, the Kd in assay [11] (KD, 50 mM HEPES pH 7.5, 1 mM MgCl2, first or only binding event) is 0.0004 ± 0.00014 mM; in [11] (second KD value, KD(2), second binding event (ATP site)), approximately 1.5 mM; in assay [11] (second KD value, second binding event (ATP site)), 1.48 ± 0.23 mM; in assay [12], 989 ± 161 µM; in [13], 320 ± 90 nM; in [14] it was 300 ± 130 nM. For the same compound, the dissociation constant (Kd) in [15] was determined as 270 ± 40 nM; in assay [16], 10.3 ± 4.1 µM; in assay [17] it was 274 ± 10 µM. Also, the “lower affinity for Ado than the WT” value in assay [16] (D299A variant of ZmADK3) is given as ~ 37 times.

The Km is the concentration of substrate that gives half-maximal velocity. By Kd is commonly meant the equilibrium constant for the complex coming apart. Low readings indicate tighter binding, high ones weaker binding.
